Conditions: 101.33 kPa, Liquid; for mass density: Vibrating tube method; for viscosity: Concentric cylinders viscometry; for electrical conductivity: impedancemetry (AC impedance bridge)

CCn1cc[n+](C)c1.O=S(=O)([O-])C(F)(F)F [1-ethyl-3-methylimidazolium trifluoromethanesulfonate]
Conditions | electrical conductivity [S/m] | mass density [kg/m3] | viscosity [mPa·s]
293.15 K | – | 1382.9 | –
298.15 K | 0.913 | – | 45.9
303.14 K | – | 1374.6 | –
313.14 K | – | 1366.3 | –
313.15 K | 1.45 | – | 27.6
323.14 K | – | 1358 | –
323.15 K | 1.74 | – | 20.2
333.14 K | – | 1349.8 | –
333.15 K | 2.19 | – | 15.5
343.14 K | – | 1341.7 | –
343.15 K | 2.6 | – | 12.3
353.14 K | – | 1333.7 | –

CCn1cc[n+](C)c1.COS(=O)(=O)[O-] [1-ethyl-3-methylimidazolium methylsulfate]
Conditions | electrical conductivity [S/m] | mass density [kg/m3] | viscosity [mPa·s]
298.03 K | – | 1282.1 | –
298.15 K | 0.602 | – | 74.3
303.15 K | 0.723 | – | –
312.67 K | – | 1272.2 | –
313.15 K | 1.02 | – | 40.6
322.6 K | – | 1265.8 | –
323.15 K | 1.39 | – | 28.8
332.35 K | – | 1259.4 | –
333.15 K | 1.84 | – | 21.2
342.22 K | – | 1252.9 | –
343.15 K | 2.34 | – | 16.1

CCCCn1cc[n+](C)c1.COS(=O)(=O)[O-] [1-butyl-3-methylimidazolium methyl sulfate]
Conditions | electrical conductivity [S/m] | mass density [kg/m3] | viscosity [mPa·s]
298.08 K | – | 1210.5 | –
298.15 K | 0.126 | – | 223
302.78 K | – | 1207.6 | –
303.15 K | 0.16 | – | –
312.49 K | – | 1201.4 | –
313.15 K | 0.254 | – | 101
322.23 K | – | 1195 | –
323.15 K | 0.382 | – | 64.3
332.16 K | – | 1188.7 | –
333.15 K | 0.551 | – | 43.6
341.68 K | – | 1182.9 | –
343.15 K | 0.757 | – | 31.1

CCCCn1cc[n+](C)c1.O=S(=O)([O-])C(F)(F)F [1-butyl-3-methylimidazolium trifluoromethanesulfonate]
Conditions | electrical conductivity [S/m] | mass density [kg/m3] | viscosity [mPa·s]
297.98 K | – | 1294.7 | –
298.15 K | 0.301 | – | 86.6
302.79 K | – | 1291.3 | –
303.15 K | 0.378 | – | –
313 K | – | 1283.1 | –
313.15 K | 0.553 | – | 45.6
323.12 K | – | 1275.2 | –
323.15 K | 0.763 | – | 31.6
333.12 K | – | 1267.4 | –
333.15 K | 1.01 | – | 23
343.12 K | – | 1259.8 | –
343.15 K | 1.29 | – | 17.2
